Counter-ions that a name gives are not always drawn. One block for each compound: values may come before it.
Legend:
Smo::EGFP [1] = target: T1, Smo::EGFP (Homo sapiens, UniProt Q99835); test: High content assay of Shh-induced Smo::EGFP accumulation in the primary cilium (Smo::EGFP/Ivs::tagRFPT NIH/3T3 cells); type: cell-based; settings: for accumulation of Smo on the PC: in either the presence or absence of Shh; for inhibition of Shh-induced Smo::EGFP accumulation in the PC: in the presence of Shh; for Smo antagonist activity in SAR assays: Smo::EGFP/Ivs::tagRFPT cells primed with compounds for 3 hours before adding Shh
T1 construct: expressed in transfected cells
T1 sequence (Q99835 28-787): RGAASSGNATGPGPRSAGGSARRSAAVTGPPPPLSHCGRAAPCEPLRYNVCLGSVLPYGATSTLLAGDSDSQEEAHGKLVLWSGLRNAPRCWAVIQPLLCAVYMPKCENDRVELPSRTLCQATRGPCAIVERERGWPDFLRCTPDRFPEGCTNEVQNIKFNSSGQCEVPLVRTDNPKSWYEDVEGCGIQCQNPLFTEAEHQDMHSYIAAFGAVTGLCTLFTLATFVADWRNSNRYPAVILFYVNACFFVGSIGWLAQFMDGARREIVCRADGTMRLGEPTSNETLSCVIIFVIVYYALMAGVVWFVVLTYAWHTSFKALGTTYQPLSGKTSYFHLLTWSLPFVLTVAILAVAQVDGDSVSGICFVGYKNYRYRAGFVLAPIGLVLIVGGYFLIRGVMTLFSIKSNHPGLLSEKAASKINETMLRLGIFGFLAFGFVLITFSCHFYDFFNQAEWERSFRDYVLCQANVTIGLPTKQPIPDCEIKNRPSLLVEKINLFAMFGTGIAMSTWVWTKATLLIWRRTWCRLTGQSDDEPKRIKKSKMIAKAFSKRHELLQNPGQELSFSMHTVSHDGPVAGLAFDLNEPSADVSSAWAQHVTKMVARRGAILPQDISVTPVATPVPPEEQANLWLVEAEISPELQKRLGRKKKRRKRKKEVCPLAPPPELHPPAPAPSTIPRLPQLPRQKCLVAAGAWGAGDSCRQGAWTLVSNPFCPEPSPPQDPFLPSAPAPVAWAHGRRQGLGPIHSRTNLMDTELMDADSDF
Text: (§1) NIH/3T3 cells were maintained in DMEM containing 10% (v/v) calf serum, penicillin, streptomycin, and L-glutamine. HEK293, L, cos 7, and suFU−/− mouse embryonic fibroblast cells were maintained in DMEM containing 10% (v/v) fetal bovine serum, penicillin, streptomycin, and L-glutamine. Smo::EGFP, SmoM2::GFP, and Ivs::tagRFPT were cloned into pBabe to generate retroviral particles for infection. Smo::EGFP/Ivs::tagRFPT and SmoM2::GFP/Ivs::tagRFPT stable cell lines were generated through viral infection of NIH/3T3^12. A ShhLightII Gli reporter cell line was obtained from the American Type Culture Collection (ATCC) and used in luciferase reporter assays to measure Hh pathway activity. The cell line contains a stably integrated Gli-responsive Firefly luciferase reporter and a constitutive Renilla luciferase expression construct^33. Subclones expressing Smo or SmoM2 in ShhLightII cells were used for chemical epistasis analyses.
(§2) Cells were cultured and treated in 384-well imaging plate precoated with poly-D-Lysine (Greiner Bio-one), fixed with 4% paraformaldehyde (Electron Microscopy Sciences), and stained with Hoechst (Invitrogen). Images were collected using Opera High Content Screening System (Perkin Elmer). Activityl)ase (IDBS Inc, Emeryvill, Calif.) and Pipeline Pilot (Accelrys, Inc. San Diego, Calif.) were used for high content screening data management and analysis. Acapella 2.0 software (Evotec Technologies/PerkinElmer) was used to perform multi-parametrical high content image quantification. All the images for comparison were scanned with identical microscopic settings and analyzed with the same input parameters.
(§3) Acapella 2.0 software (Evotec Technologies/PerkinElmer) was used to perform multi-parametric high content image quantification. Our image analysis script used Ivs::tagREPT to first determine the location of the PC and then Smo::EGFP to quantify the level of Smo present in the cilium.
(§4) The inventors used the spot-finding algorithm in the RFP channel to find Ivs-rich spots. Each non-overlapping spot was based on a maximum 8 pixel-radius (when using a 40× objective) around a central intensity peak of 5 pixels. A distance of at least 10 pixels was required between adjacent spot centers. Spot peaks had to exceed thresholds of relative intensity compared to the remaining body of the spot as well as to the entire image. The average, maximum and total RFP intensity of each spot were measured. The spots with sufficiently high absolute maxima to pass the selected threshold were classified as positive spots. To form candidate cilia, the inventors selected the brightest 15% of the pixels in each positive spot and merged those pixels into objects so that the brightest parts of adjacent spots could form single, larger cilia-shaped objects. To qualify the candidate cilia as true Ivs-positive cilia, the width of the objects created from merging the brightest pixels in each spot had to be at least 2 pixels and the length to half-width ratio had to exceed 3. (i.e. a 3-pixel long by 2-pixel wide cilium was the minimum accepted cilium size and the length had to be at least 1.5 fold of the width). The mean GFP intensity within these Ivs-positive cilia was used to estimate the ciliary level of Smo protein. The inventors subtracted the background of the mean GFP intensity in the 3-pixel wide area around each candidate cilium to avoid some false positives. Those Ivs-positive cilia that exceed the final mean GFP intensity threshold set for each experiment were deemed Smo-positive cilia.
Hoechst staining was used to determine the total number of nuclei per well.
Measurements of the geometry of the cilia as well as the total fluorescent intensities of each cilium in the Smo- and Ivs-channels were used to determine if any of the compounds were having unusual effects on cilia size, intensity or frequency of observation or combinations of all three characteristics.

Hh pathway activity [2] = test: Gli-luciferase reporter assay, Shh-induced Hh pathway activity (ShhLightII cells); type: cell-based; settings: for inhibition of Shh-induced Hh pathway activity, Gli-luciferase reporter: Shh stimulation
Text: as §1
(§5) Hh activity assays were performed using ShhLightll cells, Smo/Lightll cells, SmoM2/Lightll cells, and suFU−/− mouse embryonic fibroblasts. In the suFU−/− cells, Hh activity was measured after co-transfection with Gli driven firefly luciferase and TK-renilla luciferase reporters^41. Wnt activity was measured in 293 cells co-transfected with Top-flash and TK-renilla luciferase reporters^42. Cells were cultured and treated in 96 well assay plates (Corning) and incubated with Duo-Glo luciferase substrates (Promega) to measure firefly and renilla luciferase activity sequentially using a Top Count NX Microplate Scintillation and Luminescence Counter (Perkin Elmer). The renilla luciferase signal was used to normalize the firefly reporter activity.
(§6) ShhLightII cells and SmoM2/LightII cells were cultured and treated in 96 well assay plates (Corning) and incubated with Duo-Glo luciferase substrates (Promega) to sequentially measure firefly and renilla luciferase activity. Smo, or GFP, expression plasmids were co-transfected into 3T3 cells together with a Gli-responsive firefly reporter and a TK-renilla luciferase reporter contruct to monitor effects of Smo overexpression. Co-transfection of the two reporter constructs was conducted in assays measuring Hh pathway activity in suFU−/− cells. Wnt activity was measured following co-transfection of a Top-flash and renilla luciferase reporter. In both Hh and Wnt activity assays, renilla luciferase reporter activity, or mass of protein, was used to normalize expression values. Luciferase signal was read by TopCount NX Microplate Scintillation and Luminescence Counter (Perkin Elmer). Quantitative PCR probes for Ptch1, Gli1, and β-actin were purchased from Applied Biosystems. Reactions and measurements were performed using on an Applied Biosystems 7900HT at Harvard FAS Center of System Biology. β-actin was used to normalize Ptch1 and Gil1 values.

Wnt signaling activity = test: Wnt Top-flash reporter assay; type: cell-based; settings: with or without Wnt3a
Experimental: as §5, §6

SmoM2::GFP = target: T2, SmoM2::GFP (Homo sapiens, UniProt Q99835, W535L); test: Ciliary localization of SmoM2::GFP (3T3/SmoM2::GFP Overexpression/Ivs::tagRFPT); type: cell-based; settings: SmoM2::EGFP overexpressing cells
T2 construct: expressed in transfected cells
T2 sequence (Q99835 28-787 W535L): as the sequence (Q99835 28-787) above, with W508L counted along it
Text: as §1, §2, §3

primary cilium (PC) = test: Primary cilium markers in the high content assay (Ivs::tagRFPT, Arl13b, acetylated tubulin); type: cell-based; settings: Ivs::tagRFPT and other PC markers
Text: as §3
as §4, with “cilia. […]” for “cilia.”
Cells were cultured and treated in 384-well imaging plate precoated with poly-D-Lysine (Greiner Bio-one), fixed with 4% paraformaldehyde (Electron Microscopy Sciences), and stained with Hoechst (Invitrogen). […] Acapella 2.0 software (Evotec Technologies/PerkinElmer) was used to perform multi-parametric image quantification. All the comparative images were scanned with identical microscopic setting and analyzed with the same input parameters.

SmoM2 = test: Gli-luciferase reporter induced by SmoM2::GFP overexpression (SmoM2/LightII cells); type: cell-based; settings: SmoM2 overexpression
Text: as §1, §5, §6

Smo = test: Bodipy-cyclopamine competition assay in Cos 7 cells expressing Smo; type: binding; settings: cells over-expressing Smo, 5 nM Bodipy-cyclopamine
Experimental: Cos 7 cells were transfected with a plasmid co-expressing Smo and a nuclear localized form of tagRFPT (pCIT-Smo). An empty parental construct (pCIT), and a construct that co-expresses SmoM2, were used as controls to assess specificity and background noise. Three days after transfection, cells were incubated with 5 nM Bodipy-cyclopamine, with or without other compounds for 1 hour at 37 °C. Cells were washed, fixed and stained with Hoechst. Images were collected by an Opera High Content Screen System. Bodipy fluorescence was quantified specifically for transfected cells (determined by red tagRFPT+ nucleus) using a program developed by the authors with Acapella 2.0 software. All of the images were scanned with identical microscopic settings and analyzed with the same input parameters.
Cos 7 cells were transfected with a plasmid that co-expresses Smo and a nuclear localized tagRFPT marker (pCIT-Smo). The empty parental construct (pCIT) and a construct that co-express SmoM2 were used as controls to assess specificity and background signal. Three days after transfection, cells were incubated with 5 nM Bodipy-cyclopamine, with or without additional compounds, for 1 hour at 37° C. Cells were then fixed and stained with Hoechst. Images were collected with the Opera High Content Screen System. Fluorescence values were assessed in transfected cells (red nuclei) with a program developed by the authors using Acapella 2.0 software. All of images were scanned with identical microscopic setting and analyzed with the same input parameters.

Smo::EGFP [3] = target: T1, Smo::EGFP; test: High content screen for compound-induced Smo accumulation at the primary cilium (no Hh ligand); type: cell-based
Experimental: Cells were cultured and treated in 384-well imaging plate precoated with poly-D-Lysine (Greiner Bio-one), fixed with 4% paraformaldehyde (Electron Microscopy Sciences), and stained with Hoechst (Invitrogen). Images were collected using Opera High Content Screening System (Perkin Elmer).

Hh pathway activity [4] = test: Priming and withdrawal of compound followed by Shh stimulation, Gli-luciferase reporter (hypersensitivity); type: cell-based; settings: priming 24 hours, washout, then Shh (or SAG) stimulation
Experimental: as §5
Following the removal of drug containing medium, and extensive washing, cells were stimulated with either Hh ligand, or the direct-binding Smo agonist SAG^17,18.
as §6

Hh pathway activity [5] = test: Gli-luciferase reporter assay, Hh pathway activation by compound alone (NIH/3T3 cells); type: cell-based; settings: 1 μM SAG
Experimental: as §6

Compound: 4-hydroxytamoxifen
accumulation of Smo on the PC (Smo::EGFP [1]): did not alter the accumulation of Smo on the PC

inhibition of Shh-induced Smo::EGFP accumulation in the PC (Smo::EGFP [1]): inhibited
Compound: Cl.Cl.Clc1ccccc1CNCC1CCC(CNCc2ccccc2Cl)CC1 (centres unmarked) [AY9944]
inhibition of Shh-induced Hh pathway activity, Gli-luciferase reporter (Hh pathway activity [2]): inhibited

Compound: CCCC1O[C@@H]2C[C@H]3[C@@H]4CCC5=CC(=O)C=C[C@]5(C)[C@H]4[C@@H](O)C[C@]3(C)[C@]2(C(=O)CO)O1 (some centres unmarked) [Bud, Budesonide]
effect on Wnt pathway reporter activity (Wnt signaling activity): no effect

effect on SmoM2 ciliary localization (SmoM2::GFP): attenuated
inhibition of Shh-induced Smo::EGFP accumulation in the PC (Smo::EGFP [1]): inhibition of Smo accumulation in the PC
Compound: CC(C)C(=O)OCC(=O)[C@@]12O[C@H](C3CCCCC3)O[C@@H]1C[C@H]1[C@@H]3CCC4=CC(=O)C=C[C@]4(C)[C@H]3[C@@H](O)C[C@@]12C [Cic, Ciclesonide]
effect on primary cilium markers / ciliary structure (primary cilium (PC)): did not disrupt
effect on SmoM2 driven Hh pathway activity, transcriptional reporter (SmoM2): attenuated
inhibition of Shh-induced Hh pathway activity, Gli-luciferase reporter (Hh pathway activity [2]): inhibited

Compound: CC1=C2C[C@H]3[C@@H](CC=C4C[C@@H](O)CC[C@@]43C)[C@@H]2CC[C@]12O[C@@H]1C[C@H](C)CN[C@H]1[C@H]2C [Cyc, Cyclopamine]
competition of Bodipy-Cyc binding to Smo (Smo): effective competitor
induction of Smo accumulation in the PC by compound alone (Smo::EGFP [3]): induces its accumulation in the PC
hypersensitivity to Hh pathway stimulation after priming with and removal of compound, Gli-luciferase (Hh pathway activity [4]): elevated signaling response
Hh pathway inhibition by the antagonist in the presence of FA (Hh pathway activity [2]; Gli-luciferase induction and Smo ciliary localization, 10 μM FA): dramatically reduced

IC50 (Smo::EGFP [1]; 3T3/Smo::GFP/Ivs::tagRFPT cells, stimulus Shh, read-out: IC50, inhibition of Shh-induced Smo::GFP ciliary accumulaton): 2 µM
IC50 (Hh pathway activity [2]; Mus musculus, Shh Light II, 3T3/Shh-LightII cells, stimulus Shh, read-out: IC50, inhibition of Shh-induced expression of Gli-luciferase reporter): 10 µM
Compound: CC(C)c1ccc(/C=N/NC(=O)c2ccc(O)cc2)cc1 [GSK4716]

Compound: N#CC(C(=O)c1ccc(Cl)cc1Cl)c1nc2ccccc2c(=O)[nH]1 (centres unmarked) [HPI-4]
effect on primary cilium markers / ciliary structure (primary cilium (PC)): decrease in the Ivs::tagRFPT ciliary signal
inhibition of Shh-induced Hh pathway activity, Gli-luciferase reporter (Hh pathway activity [2]): appear as Hh pathway antagonists

inhibition of Shh-induced Smo::EGFP accumulation in the PC (Smo::EGFP [1]): inhibited
Compound: CC(=O)N1CCN(c2ccc(OCC3COC(Cn4ccnc4)(c4ccc(Cl)cc4Cl)O3)cc2)CC1 (centres unmarked) [KCZ, Ketoconazole]
inhibition of Shh-induced Hh pathway activity, Gli-luciferase reporter (Hh pathway activity [2]): inhibited

Compound: O=C(N/N=C/c1ccccc1)c1ccc(O)cc1 [RL-0070462]
Smo antagonist activity in SAR assays (Smo::EGFP [1]): dramatically impaired the activity

Smo antagonist activity in SAR assays (Smo::EGFP [1]): moderately decreased the activity
Compound: CCN(CC)c1ccc(/C=N/NC(=O)c2ccccc2)cc1 [RL-0070463]

Compound: CCN(CC)c1ccc(/C=N/NC(=O)c2ccc(OC)cc2)cc1 [RL-0070464]
Smo antagonist activity in SAR assays (Smo::EGFP [1]): can be tolerated

induction of Smo accumulation in the PC by compound alone (Smo::EGFP [3]): induces its accumulation in the PC
Compound: CNC1CCC(N(Cc2cccc(-c3ccncc3)c2)C(=O)c2sc3ccccc3c2Cl)CC1 (centres unmarked) [SAG]
transcriptional response in Gli-luciferase reporter assay (Hh pathway activity [5]): 25 fold

Compound: CC/C(=C(/CC)c1ccc(O)cc1)c1ccc(O)cc1 [diethylstilbestrol]
accumulation of Smo on the PC (Smo::EGFP [1]): did not alter the accumulation of Smo on the PC

Compound: CC[C@H](c1ccc(O)cc1)[C@@H](CC)c1ccc(O)cc1 [hexestrol]
accumulation of Smo on the PC (Smo::EGFP [1]): did not alter the accumulation of Smo on the PC

Compound: CC/C(=C(\c1ccccc1)c1ccc(OCCN(C)C)cc1)c1ccccc1 [tamoxifen citrate]
accumulation of Smo on the PC (Smo::EGFP [1]): did not alter the accumulation of Smo on the PC

Compound: CC[C@]1(O)C[C@@H]2CN(CCc3c([nH]c4ccccc34)[C@@](C(=O)OC)(c3cc4c(cc3OC)N(C)[C@H]3[C@@](O)(C(=O)OC)[C@H](OC(C)=O)[C@]5(CC)C=CCN6CC[C@]43[C@@H]65)C2)C1 [vinblastine]
effect on primary cilium markers / ciliary structure (primary cilium (PC)): decrease in the Ivs::tagRFPT ciliary signal
inhibition of Shh-induced Hh pathway activity, Gli-luciferase reporter (Hh pathway activity [2]): appear as Hh pathway antagonists

From patent US20130274233A1, “MODULATORS OF HEDGEHOG SIGNALING PATHWAY” (priority 2012, published 2013)
